Data: publication PMC12396409, “Screening and hit evaluation of a microbial metabolite library against the pathogenic Plasmodium falciparum and Toxoplasma gondii parasites” (International Journal for Parasitology: Drugs and Drug …, 2025)
Like-named read-outs stand apart in the source and are kept apart here.

Tests used:
[1] = test system: T. gondii RH strain (RH-Tub-eYFP) tachyzoites; assay: microbe, parasite or virus in culture; format: cell-based, Toxoplasma gondii; details: 72 h; for percent parasite growth at 2 µg/mL: Toxoplasma gondii
[2] = test system: P. falciparum 3D7 parasites; assay: P. falciparum growth inhibition assay, 1-cycle (72 h treatment), SYBR DNA staining (library screen at 2 μg/mL and dose-response); format: cell-based, Plasmodium falciparum; details: for activity at 2 µg/mL: Plasmodium falciparum
[3] = test system: P. falciparum 3D7 parasites; assay: P. falciparum growth inhibition assay, 2-cycle (120 h treatment), delayed-death screen and dose-response; format: cell-based, Plasmodium falciparum; details: for activity at 2 µg/mL: Plasmodium falciparum
[4] = T. gondii, screen at 2 μg/mL, replicate 1
[5] = T. gondii, screen at 2 μg/mL, replicate 2
[6] = P. falciparum, 72 h, screen at 2 μg/mL, replicate 1
[7] = P. falciparum, 72 h, screen at 2 μg/mL, replicate 2
[8] = P. falciparum, 120 h, screen at 2 μg/mL, replicate 1
[9] = P. falciparum, 120 h, screen at 2 μg/mL, replicate 2
[10] = T. gondii, parasite screen at 2 μg/mL, % growth, replicate 1
[11] = T. gondii, parasite screen at 2 μg/mL, % growth, replicate 2
[12] = P. falciparum 3D7, 72 h, parasite screen at 2 μg/mL, % growth, replicate 1
[13] = P. falciparum 3D7, 72 h, parasite screen at 2 μg/mL, % growth, replicate 2
[14] = P. falciparum 3D7, 120 h, parasite screen at 2 μg/mL, % growth, replicate 1
[15] = P. falciparum 3D7, 120 h, parasite screen at 2 μg/mL, % growth, replicate 2
[16] = T. gondii RH, library screen at 2 μg/mL, % growth, replicate 1
[17] = T. gondii RH, library screen at 2 μg/mL, % growth, replicate 2
[18] = P. falciparum 3D7, 72 h, library screen at 2 μg/mL, % growth, replicate 1
[19] = P. falciparum 3D7, 72 h, library screen at 2 μg/mL, % growth, replicate 2
[20] = P. falciparum 3D7, 120 h, library screen at 2 μg/mL, % growth, replicate 1
[21] = P. falciparum 3D7, 120 h, library screen at 2 μg/mL, % growth, replicate 2
[22] = library screen at 2 μg/mL, % growth, replicate 1
[23] = library screen at 2 μg/mL, % growth, replicate 2
[24] = library screen at 2 μg/mL, 72 h, % growth, replicate 1
[25] = library screen at 2 μg/mL, 72 h, % growth, replicate 2
[26] = library screen at 2 μg/mL, 120 h, % growth, replicate 1
[27] = library screen at 2 μg/mL, 120 h, % growth, replicate 2

Molecule: C/C=C/C[C@@H](C)[C@@H](O)[C@H]1C(=O)N[C@@H](C(C)C)C(=O)N(C)CC(=O)N(C)[C@@H](CC(C)C)C(=O)N[C@@H](C(C)C)C(=O)N(C)[C@@H](CC(C)C)C(=O)N[C@@H](C)C(=O)N[C@H](C)C(=O)N(C)[C@@H](CC(C)C)C(=O)N(C)[C@@H](CC(C)C)C(=O)N(C)[C@@H](C(C)C)C(=O)N1C [Cyclosporin D]
- Tg_72h_%Growth_Rep1 [1, 4]: 61.91%
- Tg_72h_%Growth_Rep2 [1, 5]: 54.60%
- Pf_72h_%Growth_Rep1 [2, 6]: 1.31%
- Pf_72h_%Growth_Rep2 [2, 7]: 3.21%
- Pf_120h_%Growth_Rep1 [3, 8]: -2.52%
- Pf_120h_%Growth_Rep2 [3, 9]: -5.39%

Molecule: NC(=O)C=Cc1ccccc1 [Cinnamamide]
- percent parasite growth at 2 µg/mL ([1]; read-out: Tg_72h_%Growth_Rep1): 85.6%
- percent parasite growth at 2 µg/mL ([1]; read-out: Tg_72h_%Growth_Rep2): 87.3%
- activity at 2 µg/mL ([2]; 3D7, P. falciparum, 72 h, screen at 2 μg/mL, replicate 1, read-out: Pf_72h_%Growth_Rep1): 95%
- activity at 2 µg/mL ([2]; 3D7, P. falciparum, 72 h, screen at 2 μg/mL, replicate 2, read-out: Pf_72h_%Growth_Rep2): 81.9%
- activity at 2 µg/mL ([3]; 3D7, P. falciparum, 120 h, screen at 2 μg/mL, replicate 1, read-out: Pf_120h_%Growth_Rep1): 152%
- activity at 2 µg/mL ([3]; 3D7, P. falciparum, 120 h, screen at 2 μg/mL, replicate 2, read-out: Pf_120h_%Growth_Rep2): 94.1%

Molecule: CC(C)[C@@H]1NC(=O)[C@H](Cc2ccc(O)cc2)NC1=O [Cyclo(L-Tyr-L-Val)]
- Tg_72h_%Growth_Rep1 [1, 4]: 164.57%
- Tg_72h_%Growth_Rep2 [1, 5]: 103.47%
- Pf_72h_%Growth_Rep1 [2, 6]: 84.64%
- Pf_72h_%Growth_Rep2 [2, 7]: 82.94%
- Pf_120h_%Growth_Rep1 [3, 8]: 98.73%
- Pf_120h_%Growth_Rep2 [3, 9]: 89.51%

Molecule: C[C@@H]1C[C@H]2CC[C@H](O2)[C@H](C)C(=O)O[C@@H](C)C[C@@H]2CC[C@@H](O2)[C@@H](C)C(=O)O[C@H](C)C[C@H]2CC[C@@H](O2)[C@H](C)C(=O)O[C@@H](C)C[C@@H]2CC[C@@H](O2)[C@@H](C)C(=O)O1 [BIA-N1270]
- Tg_72h_%Growth_Rep1 [1, 10]: 4.95%
- Tg_72h_%Growth_Rep2 [1, 11]: 0.97%
- Pf_72h_%Growth_Rep1 [2, 12]: 6.60%
- Pf_72h_%Growth_Rep2 [2, 13]: 4.15%
- Pf_120h_%Growth_Rep1 [3, 14]: 46.69%
- Pf_120h_%Growth_Rep2 [3, 15]: 11.45%

Molecule: CN1C(=O)[C@]23CC4=CC=C[C@H](O)[C@H]4N2C(=O)[C@@]1(CO)SS3 [BIA-G1260]
- Tg_72h_%Growth_Rep1 [1, 16]: 1.56%
- Tg_72h_%Growth_Rep2 [1, 17]: 0.82%
- Pf_72h_%Growth_Rep1 [2, 18]: 14.96%
- Pf_72h_%Growth_Rep2 [2, 19]: 8.82%
- Pf_120h_%Growth_Rep1 [3, 20]: 35.56%
- Pf_120h_%Growth_Rep2 [3, 21]: 25.95%

Molecule: CCCCCCCCCCCCCCCC(=O)C1=C(O)C(CO)OC1=O (stereo not drawn) [TAN 1364B]
- Tg_72h_%Growth_Rep1 ([1]; T. gondii, parasite screen 2 μg/mL, % growth, replicate 1): 101.38%
- Tg_72h_%Growth_Rep2 ([1]; T. gondii, parasite screen 2 μg/mL, % growth, replicate 2): 92.62%
- Pf_72h_%Growth_Rep1 ([2]; P. falciparum, 72 h, parasite screen 2 μg/mL, % growth, replicate 1): 72.25%
- Pf_72h_%Growth_Rep2 ([2]; P. falciparum, 72 h, parasite screen 2 μg/mL, % growth, replicate 2): 85.83%
- Pf_120h_%Growth_Rep1 ([3]; P. falciparum, 120 h, parasite screen 2 μg/mL, % growth, replicate 1): 149.02%
- Pf_120h_%Growth_Rep2 ([3]; P. falciparum, 120 h, parasite screen 2 μg/mL, % growth, replicate 2): 76.93%

Molecule: CO[C@H]1\C=C/C=C\C=C/C[C@H](OC(=O)[C@@H](C)NC(=O)C2CCCCC2)[C@H](C)[C@@H](O)/C(C)=C\CCc2cc(O)cc(c2O)NC(=O)C1 [Ansatrienin B]
- Tg_72h_%Growth_Rep1 [1, 22]: 19.16%
- Tg_72h_%Growth_Rep2 [1, 23]: 11.14%
- Pf_72h_%Growth_Rep1 [2, 24]: 4.68%
- Pf_72h_%Growth_Rep2 [2, 25]: 7.24%
- Pf_120h_%Growth_Rep1 [3, 26]: -0.38%
- Pf_120h_%Growth_Rep2 [3, 27]: 4.42%

Molecule: Bafilomycin D
- Tg_72h_%Growth_Rep1 [1, 22]: 0.37%
- Tg_72h_%Growth_Rep2 [1, 23]: -0.37%
- Pf_72h_%Growth_Rep1 [2, 24]: 3.99%
- Pf_72h_%Growth_Rep2 [2, 25]: 4.20%
- Pf_120h_%Growth_Rep1 [3, 26]: 2.60%
- Pf_120h_%Growth_Rep2 [3, 27]: -8.55%

Molecule: CC(=O)C1=C(O)[C@@H]2[C@H]3c4c[nH]c5cccc(c45)C[C@H]3C(C)(C)N2C1=O [Cyclopiazonic acid]
- percent parasite growth at 2 µg/mL ([1]; T. gondii, screen at 2 μg/mL, replicate 1, read-out: Tg_72h_%Growth_Rep1): 0.36%
- percent parasite growth at 2 µg/mL ([1]; T. gondii, screen at 2 μg/mL, replicate 2, read-out: Tg_72h_%Growth_Rep2): 3.22%
- activity at 2 µg/mL ([2]; 3D7, 72 h, P. falciparum, 72 h, screen at 2 μg/mL, replicate 1, read-out: Pf_72h_%Growth_Rep1): 12.6%
- activity at 2 µg/mL ([2]; 3D7, 72 h, P. falciparum, 72 h, screen at 2 μg/mL, replicate 2, read-out: Pf_72h_%Growth_Rep2): 7.26%
- activity at 2 µg/mL ([3]; 3D7, 120 h, P. falciparum, 120 h, screen at 2 μg/mL, replicate 1, read-out: Pf_120h_%Growth_Rep1): 14%
- activity at 2 µg/mL ([3]; 3D7, 120 h, P. falciparum, 120 h, screen at 2 μg/mL, replicate 2, read-out: Pf_120h_%Growth_Rep2): 9.35%

Molecule: COc1ccc2c(c1OC)C(=O)O[C@@H]2[C@H]1c2c(cc3c(c2OC)OCO3)CCN1C [BIA-N1938]
- Tg_72h_%Growth_Rep1 [1, 10]: 85.42%
- Tg_72h_%Growth_Rep2 [1, 11]: 102.99%
- Pf_72h_%Growth_Rep1 [2, 12]: 84.86%
- Pf_72h_%Growth_Rep2 [2, 13]: 78.38%
- Pf_120h_%Growth_Rep1 [3, 14]: 166.83%
- Pf_120h_%Growth_Rep2 [3, 15]: 79.12%

Molecule: O=C1CCCC2C3CC(CN12)C1CCCCN1C3 (stereo not drawn) [BIA-L1951]
- Tg_72h_%Growth_Rep1 [1, 16]: 86.61%
- Tg_72h_%Growth_Rep2 [1, 17]: 107.54%
- Pf_72h_%Growth_Rep1 [2, 18]: 95.10%
- Pf_72h_%Growth_Rep2 [2, 19]: 93.40%
- Pf_120h_%Growth_Rep1 [3, 20]: 173.37%
- Pf_120h_%Growth_Rep2 [3, 21]: 101.50%
